{"source": "patent US20040171691A1", "about": "“Propofol with cysteine” (Transform Pharmaceuticals, Inc., priority 2002, published 2004)", "test_system": "microorganisms", "assay": "Antimicrobial effectiveness, overall conclusion over the four USP test organisms", "assay_type": "cell-based", "conditions": "after adventitious, extrinsic contamination", "excerpt": "Tables 2 through 5 compare the antimicrobial effectiveness of the cysteinate HCl formulation with that of Diprivan® and generic propofol formulation, as well as unpreserved Intralipid®.", "data": [{"smiles": "Cl.N[C@@H](CS)C(=O)O", "note": "[cysteine/cysteinate HCl, Cysteine HCl]", "values": [{"measurement": "time for which significant growth of microorganisms is prevented", "result": "at least 24 hours"}]}]}
